Assays:
[1] = target: T1, Muscarinic acetylcholine receptor M1 (Homo sapiens, UniProt P11229); assay: Displacement of [3H]QNB from muscarinic receptor 1 expressed in CHO-K1 cells; format: cell-based
T1 sequence (P11229 whole entry): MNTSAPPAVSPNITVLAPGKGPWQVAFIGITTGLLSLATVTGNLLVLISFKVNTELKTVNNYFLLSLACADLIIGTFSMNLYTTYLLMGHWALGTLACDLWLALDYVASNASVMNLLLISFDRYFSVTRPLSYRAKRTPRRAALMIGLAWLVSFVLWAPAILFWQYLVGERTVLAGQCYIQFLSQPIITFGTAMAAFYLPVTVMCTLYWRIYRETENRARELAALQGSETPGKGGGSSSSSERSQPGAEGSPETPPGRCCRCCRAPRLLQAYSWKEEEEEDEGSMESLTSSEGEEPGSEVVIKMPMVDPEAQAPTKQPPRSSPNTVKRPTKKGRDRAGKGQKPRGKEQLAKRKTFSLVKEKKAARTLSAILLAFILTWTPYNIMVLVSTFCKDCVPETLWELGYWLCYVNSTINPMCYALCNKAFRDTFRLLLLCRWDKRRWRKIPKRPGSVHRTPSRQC

[2] = target: T2, Muscarinic acetylcholine receptor M2 (Rattus norvegicus, UniProt P10980); assay: Displacement of [3H]QNB from rat brain stem muscarinic receptor 2 (M2)
T2 sequence (P10980 whole entry): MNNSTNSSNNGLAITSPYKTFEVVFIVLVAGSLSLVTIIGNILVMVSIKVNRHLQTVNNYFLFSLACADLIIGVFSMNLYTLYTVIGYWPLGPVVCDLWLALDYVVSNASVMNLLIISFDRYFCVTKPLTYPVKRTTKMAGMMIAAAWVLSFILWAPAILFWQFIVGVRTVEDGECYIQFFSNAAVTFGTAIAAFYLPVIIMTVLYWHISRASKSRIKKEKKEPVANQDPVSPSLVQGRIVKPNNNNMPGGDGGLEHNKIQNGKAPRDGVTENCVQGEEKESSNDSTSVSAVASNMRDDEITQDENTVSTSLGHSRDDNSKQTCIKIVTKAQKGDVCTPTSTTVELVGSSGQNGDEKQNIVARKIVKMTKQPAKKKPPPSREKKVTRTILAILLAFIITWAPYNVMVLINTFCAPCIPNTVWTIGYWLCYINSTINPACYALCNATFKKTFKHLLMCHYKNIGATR

| SMILES | Kd [1] | Kd [2] |
| --- | --- | --- |
| CN1CCCCC1C/C=C/C1c2ccccc2Cc2ccccc21 (stereo not given) | 5.23 nM | 22.6 nM |
| CN1CCCCC1CCC=C1c2ccccc2Cc2ccccc21 (stereo not given) | 4.99 nM | 7.64 nM |
| CN1CCCC[C@@H]1/C=C/C1c2ccccc2Cc2ccccc21 | 1.53 nM | 3.17 nM |
| CN1CCCCC1/C=C/c1c2ccccc2cc2ccccc12 (stereo not given) | 679 nM | 635 nM |
| CN1CCCC[C@@H]1CC=C1c2ccccc2Cc2ccccc21 | 11.6 nM | 14.5 nM |
| CN1CCCC[C@H]1CC=C1c2ccccc2Cc2ccccc21 | 24.2 nM | 35 nM |
| CN1CCCC[C@H]1/C=C/C1c2ccccc2Cc2ccccc21 | 4.92 nM | 2.19 nM |
| CN1CCCCC1/C=C/C1c2ccccc2Cc2ccccc21 (racemic) | 1.75 nM | 20.5 nM |
| CN1CCCCC1CC=C1c2ccccc2Cc2ccccc21 (racemic) | 2.7 nM | 3 nM |
| C[C@@H]1OC(=O)[C@H]2C[C@H]3CCCC[C@@H]3[C@@H](/C=C/[C@H]3CCC[C@H](C)N3C)[C@@H]12 [HIMBACINE] | 168 nM | 9.05 nM |

Reference: ChEMBL document CHEMBL1151557, “Simplified analogs of himbacine displaying potent binding affinity for muscarinic receptors” (Bioorg Med Chem Lett, 1993)
